Results: patent US20250381324A1, “CD31 MIMETIC COATING FOR ENDOVASCULAR STENT” (INSERM (Institut National de la Santé et de la Recherche …, priority 2021, published 2025)
Bridge positions count the residues as written; N and C are the ends. Square brackets hold non-standard residues; d marks the D form. Primed or numbered codes have the meaning given here. Ends that are not written are not given here. * marks the point of attachment. Lys(N3) = [N-]=[N+]=NCCCC[C@H](N)C(=O)O; Ttds = NCCCOCCOCCOCCCNC(=O)CCC(=O)*; hCys = N[C@@H](CCS)C(=O)O; PEG4′ = not defined here

Experiments:
[1] = tested on: Primary Human Aortic Endothelial Cells (HAEC); assay: Human aortic endothelial cells grown 48 h on bare or peptide-coated nitinol disks; F-actin / CD31 staining and image analysis; type: cell-based; conditions: for CD31 expression (physiologic endothelial phenotype), Integrated Density / F-actin expression (cellular stress), Integrated Density: HAEC 48 h on coated nitinol disks; for CD31 expression (physiologic endothelial phenotype), Integrated Density: compared to other modified disks and bare controls, FIGS. 2, 4, 5; for CD31/Actin score: Example 2, FIG. 25, repeated experiments (SP547, SP548 only one measure); for F-actin expression (cellular stress), Integrated Density: compared to bare metal, FIGS. 2, 3, 5
Experimental: Nitinol disks are left untouched (bare metal) or coated with a domain 1, domain 2 or domain 1 and 2 CD31 analog peptide. The tested peptide is grafted to the nitinol disk following a polydopamine, DBCO-PEG4-amine and azide CD31 derivative peptide using a sequential dip-coating layering procedure. After this step, all the disks are incubated with Human aortic endothelial cells for 48 h. Disks are then rinsed and the cells are fixed in a formalin solution before staining. The staining is fulfilled using phalloidin coupled to AlexaFluor®488 dye (green fluorescence for Actin), DAPI is used for DNA staining and a domain 1 CD31 antibody coupled to APC is used for external Domain 1 staining. The cell adhesion and Actin/CD31 expression was evaluated by image analysis of the surface after staining.
In particular, as per FIG. 2 the bare or coated nitinol disks were placed at the bottom of culture wells. Primary Human Aortic Endothelial Cells (HAEC) were allowed to grow on the disks for a period of 48 h. The disks were thereafter rinsed with phosphate buffered saline, fixed in formalin, and processed for fluorescence microscopy. Disk-adherent cells were immersed in a solution comprising Hoechst 33342 (1 μg/ml, to stain the nuclei), phalloidin coupled to AlexaFluor®488 dye (0.5 μM, to stain F-actin fibers) and a monoclonal antibody directed against CD31 domain 1, coupled to allophycocyanin (to detect the presence and localization of intact CD31 at the cell surface) for 1 hour at 37° C., washed and mounted face down on glass bottom imaging chambers for imaging with an inverted fluorescence microscope.
Surface type is indicated on the Y axis, data are expressed as average±SD (N=6/surface type). Each dot corresponds to a specific surface modification. The F-actin expression relates the cellular stress of the cell in presence of the exogenous material.
In FIG. 4 the surface type is indicated on the Y axis. Each dot corresponds to a specific surface modification. Data are expressed as “Integrated Density” average±SD (N=6/surface type). CD31 expression relates the capacity of endothelial cells to adopt a physiologic phenotype while growing on a given substrate. An important variability is observed in terms of CD31 expression by HAEC according to the surface modification of the nitinol disks.
The “mirror” bars of FIG. 5 report the average Integrated Density of F-actin (left) and of CD31 (right) staining for each of the indicated (Y axis) type of peptide coated onto the disk surface and bare disks. Data are sorted (from the top to the bottom) according to the increase in the cellular stress (actin expression) of each coating. As shown on the figure, the degree of cellular stress (as detected by a high actin expression) and impaired endothelial phenotype (documented by a low CD31 expression) is evident on HAEC grown onto bare metal disks.
The data shown in FIG. 6 are expressed as the ratio between CD31 and F-actin expression.
The effect of different peptides, belonging to the different groups, were tested in batches following the same protocol as in FIG. 6. Different peptides from each group were tested in batches and the effect of individual peptides was repeatedly assessed in separate experiments. Data from all experiments were obtained by computer-assisted analysis of images of the disk side covered with endothelial cells, captured in the blue, green and red channel of an inverted fluorescence microscope. The functional score of the peptides belonging to the different groups was calculated by multiplying the number of cells (as detected by the number of blue, Dapi+ nuclei) for the integrated density of CD31 expression (red signal provided by the binding of a mouse anti-human CD31 monoclonal antibody, clone 9G11, conjugated allophycocyanin) and their product being divided for the integrated density of the F-actin polymerization (Phalloidin coupled to a green fluorochrome). […]

endothelial cells = conditions: immobilized peptide, in vitro; cited from earlier work

## Ac-K(N3)-(Ttds)4-PRhCTLDKKEAIQGGIVRVNhCSVPEEK-CONH2 ({Ac-Lys(N3)-Ttds-Ttds-Ttds-Ttds}-PR[hCys]TLDKKEAIQGGIVRVN[hCys]SVPEEK-NH2; disulfide 3-20) [SP1380]
[1]
  CD31 expression (physiologic endothelial phenotype), Integrated Density: evident positive effect in terms of CD31 expression

## Ac-K(N3)-GGSGGSGG-YKDDVLFYNISSMKST-NH2 (Ac-[Lys(N3)]GGSGGSGGYKDDVLFYNISSMKST-NH2; SMILES CC[C@H](C)[C@H](NC(=O)[C@H](CC(N)=O)NC(=O)[C@H](Cc1ccc(O)cc1)NC(=O)[C@H](Cc1ccccc1)NC(=O)[C@H](CC(C)C)NC(=O)[C@@H](NC(=O)[C@H](CC(=O)O)NC(=O)[C@H](CC(=O)O)NC(=O)[C@H](CCCCN)NC(=O)[C@H](Cc1ccc(O)cc1)NC(=O)CNC(=O)CNC(=O)[C@H](CO)NC(=O)CNC(=O)CNC(=O)[C@H](CO)NC(=O)CNC(=O)CNC(=O)[C@H](CCCCN=[N+]=[N-])NC(C)=O)C(C)C)C(=O)N[C@@H](CO)C(=O)N[C@@H](CO)C(=O)N[C@@H](CCSC)C(=O)N[C@@H](CCCCN)C(=O)N[C@@H](CO)C(=O)N[C@H](C(N)=O)[C@@H](C)O) [SP547]
[1]
  CD31/Actin score: equivalent to those of sections coated by other peptides according to the invention

## Ac-K(N3)-PEG4-PRVTLDKKEAIQGGIVRVNSSVPEEK-CONH2 (Ac-[Lys(N3)][PEG4′]PRVTLDKKEAIQGGIVRVNSSVPEEK-NH2) [SP1071]
[1]
  CD31/Actin score: significantly higher than those obtained by the bare metal disks or by disks coated with PDA alone

## Ac-YKDDVLFYNISSMKST-GGSGGSGG-K(N3)-NH2 (Ac-YKDDVLFYNISSMKSTGGSGGSGG[Lys(N3)]-NH2; SMILES CC[C@H](C)[C@H](NC(=O)[C@H](CC(N)=O)NC(=O)[C@H](Cc1ccc(O)cc1)NC(=O)[C@H](Cc1ccccc1)NC(=O)[C@H](CC(C)C)NC(=O)[C@@H](NC(=O)[C@H](CC(=O)O)NC(=O)[C@H](CC(=O)O)NC(=O)[C@H](CCCCN)NC(=O)[C@H](Cc1ccc(O)cc1)NC(C)=O)C(C)C)C(=O)N[C@@H](CO)C(=O)N[C@@H](CO)C(=O)N[C@@H](CCSC)C(=O)N[C@@H](CCCCN)C(=O)N[C@@H](CO)C(=O)N[C@H](C(=O)NCC(=O)NCC(=O)N[C@@H](CO)C(=O)NCC(=O)NCC(=O)N[C@@H](CO)C(=O)NCC(=O)NCC(=O)N[C@@H](CCCCN=[N+]=[N-])C(N)=O)[C@@H](C)O) [SP548]
[1]
  CD31/Actin score: equivalent to those of sections coated by other peptides according to the invention

## KWPALFVR [P8RI]
Endothelial cells
  blood element reaction: reduces the blood element reaction

## RDQNFVILEFP-PEG4-K(N3)-NH2 [SP1070]
[1]
  CD31/Actin score: significantly higher than those obtained by the bare metal disks or by disks coated with PDA alone
  F-actin expression (cellular stress), Integrated Density: does not show an influence on the cellular stress compared to the bare metal

## SHQMLFYKDDVLFYNISSS-GGSGGSGG-K(N3)-CONH2 (SHQMLFYKDDVLFYNISSSGGSGGSGG[Lys(N3)]-NH2; N-terminus assumed; SMILES CC[C@H](C)[C@H](NC(=O)[C@H](CC(N)=O)NC(=O)[C@H](Cc1ccc(O)cc1)NC(=O)[C@H](Cc1ccccc1)NC(=O)[C@H](CC(C)C)NC(=O)[C@@H](NC(=O)[C@H](CC(=O)O)NC(=O)[C@H](CC(=O)O)NC(=O)[C@H](CCCCN)NC(=O)[C@H](Cc1ccc(O)cc1)NC(=O)[C@H](Cc1ccccc1)NC(=O)[C@H](CC(C)C)NC(=O)[C@H](CCSC)NC(=O)[C@H](CCC(N)=O)NC(=O)[C@H](Cc1c[nH]cn1)NC(=O)[C@@H](N)CO)C(C)C)C(=O)N[C@@H](CO)C(=O)N[C@@H](CO)C(=O)N[C@@H](CO)C(=O)NCC(=O)NCC(=O)N[C@@H](CO)C(=O)NCC(=O)NCC(=O)N[C@@H](CO)C(=O)NCC(=O)NCC(=O)N[C@@H](CCCCN=[N+]=[N-])C(N)=O) [SP745]
[1]
  CD31/Actin score: significantly higher than those obtained by the bare metal disks or by disks coated with PDA alone

## [Ac-K(N3)-(Ttds)4-PRVTLDKKEAIQGGIVRVNSSVPEEK-Ttds-K^# (CH2CO)-CONH2]-[QHQMLFYhC^#DDVLFYNISSMK-CONH2] (chain 1 {Ac-Lys(N3)-Ttds-Ttds-Ttds-Ttds}-PRVTLDKKEAIQGGIVRVNSSVPEEK-{Ttds-K(CH2CO)-NH2}; chain 2 QHQMLFY[hCys]DDVLFYNISSMK-NH2; also: thioether at chain B 8 to a chain's C-terminus) [SP1383]
[1]
  CD31/Actin score: significantly higher than those obtained by the bare metal disks or by disks coated with PDA alone

## [^#CH2CONH2GTYKSTVIVNNKEKTTAEYQ-(Ttds)4-K(N3)-NH2]-[QHQMLFYhC^#DDVLFYNISSMK-CONH2] (chain 1 GTYKSTVIVNNKEKTTAEYQ-{Ttds-Ttds-Ttds-Ttds-Lys(N3)-NH2}; chain 2 QHQMLFY[hCys]DDVLFYNISSMK-NH2; not fully specified (N-terminus); also: thioether at chain B 8 to a chain's N-terminus) [SP1379]
[1]
  CD31/Actin score: significantly higher than those obtained by the bare metal disks or by disks coated with PDA alone

## hCHQMLFYKDDVLFYNISShCK-Ttds-Ttds-Ttds-Ttds-K(N3)-CONH2 ([hCys]HQMLFYKDDVLFYNISS[hCys]K-{Ttds-Ttds-Ttds-Ttds-Lys(N3)-NH2}; cysteine pairing not given here) [SP1374]
[1]
  CD31/Actin score: significantly higher than those obtained by the bare metal disks or by disks coated with PDA alone
  F-actin expression (cellular stress), Integrated Density: low cellular stress (low actin expression)
[1]; listed as 1374
  CD31 expression (physiologic endothelial phenotype), Integrated Density: evident positive effect in terms of CD31 expression
[1]; listed as SP 1374
  CD31 expression (physiologic endothelial phenotype), Integrated Density: consistent functional endothelial phenotype (high CD31 expression)
